Experiments:
[1] = Brain tissue binding (equilibrium dialysis); format: in vitro ADME; settings: mouse, brain homogenate
Method: tissues were diluted (brain: 1:10, w/v; liver: 1:10,000, w/v) with Krebs buffer containing 100 mM Tris-HCl (pH 8.1), 10 mM KCl and 1 mM EDTA, and sonicated.
80 µl of the resulting tissue homogenates were incubated for 40 min at 37 °C with 20 µl aliquots of aqueous solutions of the test compounds (or water in controls), 10 µM kynurenine, 1 mM NADPH, 3 mM glucose-6-phosphate and 1U/ml glucose-6-phosphate dehydrogenase in a total volume of 200 µl. The reaction was terminated by the addition of 50 µl of 6% perchloric acid, the denatured proteins were removed by centrifugation, and newly synthesized 3-HK was quantified by HPLC with electrochemical detection (Coulochem 5100A; ESA, Chelmsford, MA) at an oxidation potential of […].
The methodology employed was a modification of that reported previously20. […]
for 1 minute and then centrifuged at 3000 rpm in 96-well blocks for 15 minutes (Allegra X12-R, Beckman Coulter, USA). All samples were analysed by means of UPLC/MS/MS on a Xevo TQs micro Mass Spectrometer (Waters Corporation, USA).
The unbound fraction was determined as the ratio of the peak area in artificial CSF to that in brain, with correction for dilution factor according to equation (5)21, […]
((1/f ! ,!""!#$%& ) − 1) + 1/D where D = dilution factor in brain homogenate and fu,apparent is the measured free fraction of diluted brain homogenate. […]

MDR1 (P-glycoprotein) = MDR1 (P-glycoprotein) (Homo sapiens, UniProt P08183); format: in vitro ADME; settings: from effective efflux ratio
Method: internal standard at each timepoint. […]
including an analytical internal standard.
Apparent permeability (Papp) values were determined from the relationship: […]
Where V is the volume of each Transwell compartment (apical 125 µL, basolateral 600 µL), and concentrations are the relative MS responses for compound (normalized to internal standard) in the donor chamber before incubation and acceptor chamber at the end of the incubation. Area = area of cells exposed for drug transfer (0.33 cm 2).
Efflux ratios (Papp B>A / Papp A>B) were calculated for each compound from the […]
MDR1-MDCK cell line has been engineered to overexpress the efflux transporter, MDR1 (P-glycoprotein), and a finding of good permeability B>A, but poor […]
order to confirm the involvement of MDR1 in any efflux seen, an “ef fective efflux ratio” (EER) was calculated by comparing compound efflux ratios (ER) in the two cell types, i.e. EER = ER (MDR1-MDCK)/ ER (wild-type MDCK). This ratio illustrates the effect of the over-expressed MDR1 normalised for the background movement of compound through the wild-type cells. […]
Compound recovery from the wells was determined from MS responses (normalized to internal standard) in donor and acceptor chambers at the end of incubation compared to response in the donor chamber pre-incubation. […]

Sequence of MDR1 (P-glycoprotein) (P08183 whole entry): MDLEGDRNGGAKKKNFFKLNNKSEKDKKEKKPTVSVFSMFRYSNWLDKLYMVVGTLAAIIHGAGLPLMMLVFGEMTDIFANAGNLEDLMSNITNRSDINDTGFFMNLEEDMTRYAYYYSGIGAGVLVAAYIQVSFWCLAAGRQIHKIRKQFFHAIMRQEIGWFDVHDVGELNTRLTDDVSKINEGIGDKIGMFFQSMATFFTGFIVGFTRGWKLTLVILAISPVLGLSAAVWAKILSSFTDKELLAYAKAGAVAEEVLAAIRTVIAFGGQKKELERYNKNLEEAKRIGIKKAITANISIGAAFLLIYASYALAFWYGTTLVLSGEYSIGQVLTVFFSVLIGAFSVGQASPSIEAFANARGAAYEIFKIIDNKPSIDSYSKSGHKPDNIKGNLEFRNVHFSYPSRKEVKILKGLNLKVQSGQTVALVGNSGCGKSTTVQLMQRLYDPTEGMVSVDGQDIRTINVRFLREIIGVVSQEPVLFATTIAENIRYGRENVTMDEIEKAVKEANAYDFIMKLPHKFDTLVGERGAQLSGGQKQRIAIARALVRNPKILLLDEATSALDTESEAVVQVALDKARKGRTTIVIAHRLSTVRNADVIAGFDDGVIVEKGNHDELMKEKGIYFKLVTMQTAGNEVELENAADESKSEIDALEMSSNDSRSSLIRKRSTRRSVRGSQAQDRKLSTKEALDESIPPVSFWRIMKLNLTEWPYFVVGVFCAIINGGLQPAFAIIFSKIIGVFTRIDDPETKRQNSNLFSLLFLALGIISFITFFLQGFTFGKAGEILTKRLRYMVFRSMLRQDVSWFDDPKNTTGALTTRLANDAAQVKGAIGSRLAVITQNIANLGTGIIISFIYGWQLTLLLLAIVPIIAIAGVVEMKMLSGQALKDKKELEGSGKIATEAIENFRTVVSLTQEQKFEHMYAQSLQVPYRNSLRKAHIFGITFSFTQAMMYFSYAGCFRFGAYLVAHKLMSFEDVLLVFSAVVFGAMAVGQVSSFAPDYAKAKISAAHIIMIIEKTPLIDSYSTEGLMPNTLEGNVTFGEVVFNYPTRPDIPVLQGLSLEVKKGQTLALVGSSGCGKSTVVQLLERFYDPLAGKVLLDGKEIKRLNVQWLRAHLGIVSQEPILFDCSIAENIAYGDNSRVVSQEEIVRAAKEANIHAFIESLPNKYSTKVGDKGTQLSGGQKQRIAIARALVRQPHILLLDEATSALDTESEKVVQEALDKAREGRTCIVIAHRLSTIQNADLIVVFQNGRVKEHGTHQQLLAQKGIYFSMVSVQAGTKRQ

Compound | fraction unbound at 5 h, 10 µg/g [1] | Substrate for P-glycoprotein (MDR1 (P-glycoprotein))
CCOC(=O)CN1C(=O)COc2cc(C)c(Cl)c(C)c21 [1b] | 0.016 | –
Cc1cc2c(c(C)c1Cl)N(CC(=O)O)C(=O)CO2 [compound 1, (6-chloro-5,7-dimethyl-3-oxo-2,3-dihydro-4H-1,4-benzoxazin-4-yl) acetic acid] | 0.3 | not a substrate

— paper PMC6656724 (Communications Biology, 2019)
